Experimental data: patent publication US20040068015A1, “Remedies for diseases due to stenotic lesions of blood vessel” (priority 2003, published 2004)

Experiments:
[1] = system: blood vessel smooth muscle cells; assay: Effect to inhibit migration of blood vessel smooth muscle cells (histone H1 (+) cells), hamster blood vessel stricture model; assay type: in vivo; conditions: oral, twice a day, 20 mg/kg/day; 3, 5 and 7th days after carotid injury; in comparison with the control group
Experimental: (§1) Preparation of Hamster Blood Vessel Stricture Model
(§2) Male hamsters (Gold, SLC, Japan; 40 to 50 g) were allowed to feed on 0.5% cholesterol feed for 4 weeks to increase the LDL value to 4 to 6 times higher than that of normal hamsters. Each hamster was anesthetized with pentobarbital (50 mg/kg), and its carotid inner membrane was peeled using 2FG catheter (Portex) whose tip had been roughly shaved.
(3) Effect to Inhibit Migration of Blood Vessel Smooth Muscle Cells
Administration of the drug to be tested and BrdU was carried out in the same manner in the above (2).
The injured blood vessels were taken out from the hamsters on 3, 5 and 7th days after the carotid injury. Each blood vessel was washed with PBS and put into 0.3% hydrogen peroxide/cold methanol solution. The sample was incubated for 45 minutes in 5% goat serum diluted with 1% BSA-containing PBS to prevent nonselective linkage of protein. This was incubated for 60 minutes in 1% BSA-containing PBS using a histone H1 monoclonal antibody. Thereafter, each section was incubated for 45 minutes using 1% goat anti-mouse IgG antibody diluted with 1% BSA-containing PBS. By measuring the number of histone H1 (+) cells (cells/mm^2), migration of smooth muscle cells from intermediate membrane to inner membrane was evaluated.

[2] = system: blood vessel smooth muscle cells; assay: Effect to inhibit growth of blood vessel smooth muscle cells (BrdU labeling index), hamster blood vessel stricture model; assay type: in vivo; conditions: oral, twice a day, 20 mg/kg/day; 7th day after the injury
Experimental: as §1, §2
(2) Effect to Inhibit Growth of Blood Vessel Smooth Muscle Cells
The drug to be tested, N-hydroxy-5-ethoxymethyloxy-2(S)-methyl-4(S)-(4-phenoxybenzoyl)aminopentaneamide represented by the above formula (II), was orally administered once before the blood vessel inner membrane injury, and then it was orally administered twice a day (20 mg/kg/day). 5-Bromo-2-deoxy-uridine (BrdU: 50 mg/kg) was injected by subcutaneous injection 1, 8, 16 or 24 hours before taking out the inner membrane-injured carotid from each hamster.
After the carotid injury, the injured blood vessels were taken out on the 1st and 7th days to prepare frozen samples. BrdU positive cells were stained with a mouse monoclonal antibody (SIGMA) and then with a peroxidase-conjugated goat anti-mouse IgG antibody and detected with diaminobenzidine (DAB). […] The BrdU labeling index of intermediate membrane and newly formed inner membrane was calculated by the following formula: [formula]

[3] = Toxicity, single oral administration using rats; assay type: in vivo
Experimental: The toxicity of the compounds of the present invention is very low and therefore, the compounds may be considered safe for pharmaceutical use. For example, the minimal lethal dose by single oral administration of N-hydroxy-5-ethoxymethyloxy-2(S)-methyl-4(S)-(4-phenoxybenzoyl)aminopentanamide using rats was 2000 mg/kg.

smooth muscle cells = conditions: literature report; cited from earlier work

SMILES	number of smooth muscle cells on the surface of inner membrane (migration; histone H1 (+) cells) [1]	inhibition of growth of blood vessel smooth muscle cells (BrdU labeling index) [2]	minimal lethal dose [3]	growth of smooth muscle cells (smooth muscle cells)	migration of smooth muscle cells (smooth muscle cells)
CCOCOC[C@H](C[C@H](C)C(=O)NO)NC(=O)c1ccc(Oc2ccccc2)cc1 [formula (II), N-hydroxy-5-ethoxymethyloxy-2(S)-methyl-4(S)-(4-phenoxybenzoyl)aminopentaneamide]	significantly reduced	significantly inhibited	2000 mg/kg		
CNC(=O)[C@H](Cc1ccccc1)NC(=O)[C@H](CC(C)C)[C@H](CSc1cccs1)C(=O)NO [BB94, 3(S)-(N-hydroxycarbamoyl)-2(R)-isobutyl-4-(2-thienylthio)butynyl-L-phenylalanine methylamide]				inhibits migration and growth of smooth muscle cells dose-dependently	inhibits migration and growth of smooth muscle cells dose-dependently
CNC(=O)[C@H](Cc1c[nH]c2ccccc12)NC(=O)[C@H](CC(=O)NO)CC(C)C [GM6001, 3-(N-hydroxycarbamoyl)-2(S)-isobutylpropionyl-L-tryptophan methylamide]					inhibits migration of smooth muscle cells
